Columns and labels:
Test in all cases: radiometric filter-binding kinase assay, Kinaseprofiler
PAK6 (human) = PAK6 (human) (UniProt Q9NQU5); details: ATP 10 µM
GCK (human) = GCK (human) (UniProt Q12851); details: compound 1.0 µM; ATP 200 µM
PRKD2 (human) = PRKD2 (human) (UniProt Q9BZL6); details: compound 10.0 µM; ATP 155 µM
NTRK2 (human) = NTRK2 (human) (UniProt Q16620); details: ATP 90 µM
HIPK3 (human) = HIPK3 (human) (UniProt Q9H422); details: compound 10.0 µM; ATP 15 µM
BTK (human) = BTK (human) (UniProt Q06187); details: ATP 200 µM
CDK7 CCNH MNAT1 (human) = CDK7 CCNH MNAT1 (human) (UniProt P50613+P51948+P51946); details: ATP 90 µM
TLK2 (human) = TLK2 (human) (UniProt Q86UE8); details: compound 10.0 µM; ATP 10 µM
STK24 (human) = STK24 (human) (UniProt Q9Y6E0); details: compound 10.0 µM; ATP 15 µM
MTOR FKBP1A (human) = MTOR FKBP1A (human) (UniProt P42345+P62942); details: ATP 45 µM
FLT1 (human) = FLT1 (human) (UniProt P17948); details: ATP 200 µM
CAMK1D (human) = CAMK1D (human) (UniProt Q8IU85); details: compound 10.0 µM; ATP 15 µM
FYN (human) = FYN (human) (UniProt P06241); details: compound 10.0 µM; ATP 70 µM
[1] = test system: HIPK2 (human), Q9H2X6 [I471N]; details: compound 10.0 µM; ATP 10 µM
FLT3 (human) = FLT3 (human) (UniProt P36888); details: compound 1.0 µM; ATP 200 µM
PTK2B (human) = PTK2B (human) (UniProt Q14289); details: compound 10.0 µM; ATP 90 µM
MARK2 (human) = MARK2 (human) (UniProt Q7KZI7); details: compound 10.0 µM; ATP 15 µM
PDPK1 (human) = PDPK1 (human) (UniProt O15530); details: ATP 10 µM
MAPK1 (human) = MAPK1 (human) (UniProt P28482); details: compound 10.0 µM; ATP 155 µM
RPS6KA4 KD1 KD2 (human) = RPS6KA4 KD1 KD2 (human) (UniProt O75676); details: ATP 45 µM
[2] = test system: BLK (human), P51451 [M278V]; details: compound 10.0 µM; ATP 45 µM
FER (human) = FER (human) (UniProt P16591); details: compound 10.0 µM; ATP 70 µM
EPHA1 (human) = EPHA1 (human) (UniProt P21709); details: compound 10.0 µM; ATP 45 µM
MAPK3 (human) = MAPK3 (human) (UniProt P27361); details: compound 10.0 µM; ATP 70 µM
MAPK8 (human) = MAPK8 (human) (UniProt P45983); details: ATP 45 µM
IRAK1 (human) = IRAK1 (human) (UniProt P51617); details: compound 10.0 µM; ATP 45 µM
DAPK2 (human) = DAPK2 (human) (UniProt Q9UIK4); details: compound 10.0 µM; ATP 10 µM
CAMK2D (human) = CAMK2D (human) (UniProt Q13557); details: compound 1.0 µM; ATP 10 µM
ULK3 (human) = ULK3 (human) (UniProt Q6PHR2); details: compound 1.0 µM; ATP 10 µM
RPS6KA5 KD1 KD2 (human) = RPS6KA5 KD1 KD2 (human) (UniProt O75582); details: compound 10.0 µM; ATP 90 µM
FGR (human) = FGR (human) (UniProt P09769); details: compound 10.0 µM; ATP 45 µM
[3] = target: PRKAA2 PRKAB1 PRKAG1 (human) (UniProt P54619+P54646+Q9Y478); details: ATP 45 µM
TSSK1B (human) = TSSK1B (human) (UniProt Q9BXA7); details: ATP 15 µM
AURKB (human) = AURKB (human) (UniProt Q96GD4); details: ATP 10 µM
RPS6KA6 KD1 KD2 (human) = RPS6KA6 KD1 KD2 (human) (UniProt Q9UK32); details: compound 1.0 µM; ATP 45 µM
CHEK1 (human) = CHEK1 (human) (UniProt O14757); details: compound 10.0 µM; ATP 90 µM

Chain of MAPK8 (human) (P45983 whole entry, looked up): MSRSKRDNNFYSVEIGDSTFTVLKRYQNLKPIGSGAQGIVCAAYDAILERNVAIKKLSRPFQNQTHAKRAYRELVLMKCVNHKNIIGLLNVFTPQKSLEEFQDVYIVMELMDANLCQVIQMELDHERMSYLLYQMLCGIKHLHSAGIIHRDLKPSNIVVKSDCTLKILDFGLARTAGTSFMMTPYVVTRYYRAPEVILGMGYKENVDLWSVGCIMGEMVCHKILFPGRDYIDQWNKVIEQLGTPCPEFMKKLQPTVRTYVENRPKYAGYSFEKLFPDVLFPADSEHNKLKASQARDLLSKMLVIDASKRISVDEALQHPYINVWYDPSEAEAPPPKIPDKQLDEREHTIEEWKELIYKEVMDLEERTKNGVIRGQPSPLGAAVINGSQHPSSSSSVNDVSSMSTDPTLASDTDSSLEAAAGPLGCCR
Chain of MTOR FKBP1A (human) (P62942 whole entry, looked up, other chains not shown): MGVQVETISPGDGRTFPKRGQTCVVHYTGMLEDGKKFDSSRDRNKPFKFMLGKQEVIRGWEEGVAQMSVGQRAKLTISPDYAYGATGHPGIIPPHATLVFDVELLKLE
Chain of PRKAA2 PRKAB1 PRKAG1 (human) (P54619 whole entry, looked up): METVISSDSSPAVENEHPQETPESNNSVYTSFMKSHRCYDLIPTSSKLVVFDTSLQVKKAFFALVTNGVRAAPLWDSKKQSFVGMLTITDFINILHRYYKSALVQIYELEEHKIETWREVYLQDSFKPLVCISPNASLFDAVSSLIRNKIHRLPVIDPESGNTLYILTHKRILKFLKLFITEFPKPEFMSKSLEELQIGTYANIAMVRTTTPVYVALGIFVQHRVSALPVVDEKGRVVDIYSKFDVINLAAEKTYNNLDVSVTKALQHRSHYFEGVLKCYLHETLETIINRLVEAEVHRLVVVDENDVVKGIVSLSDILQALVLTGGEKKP
Chain of PRKAA2 PRKAB1 PRKAG1 (human) (P54646 whole entry, looked up): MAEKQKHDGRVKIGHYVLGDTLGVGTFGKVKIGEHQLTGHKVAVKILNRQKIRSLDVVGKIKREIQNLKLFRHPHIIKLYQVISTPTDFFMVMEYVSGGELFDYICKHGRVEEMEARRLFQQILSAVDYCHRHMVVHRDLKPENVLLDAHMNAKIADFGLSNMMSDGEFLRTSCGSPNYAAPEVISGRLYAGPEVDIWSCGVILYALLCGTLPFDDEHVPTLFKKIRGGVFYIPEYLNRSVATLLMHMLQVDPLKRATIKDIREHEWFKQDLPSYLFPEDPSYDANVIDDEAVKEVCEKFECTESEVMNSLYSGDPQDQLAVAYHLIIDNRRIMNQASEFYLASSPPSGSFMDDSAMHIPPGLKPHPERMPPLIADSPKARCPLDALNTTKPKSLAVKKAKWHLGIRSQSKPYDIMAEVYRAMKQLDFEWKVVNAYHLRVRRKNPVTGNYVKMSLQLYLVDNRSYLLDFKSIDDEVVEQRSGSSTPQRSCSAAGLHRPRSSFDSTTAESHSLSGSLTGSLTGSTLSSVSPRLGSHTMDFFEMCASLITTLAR
Chain of PRKAA2 PRKAB1 PRKAG1 (human) (Q9Y478 whole entry, looked up): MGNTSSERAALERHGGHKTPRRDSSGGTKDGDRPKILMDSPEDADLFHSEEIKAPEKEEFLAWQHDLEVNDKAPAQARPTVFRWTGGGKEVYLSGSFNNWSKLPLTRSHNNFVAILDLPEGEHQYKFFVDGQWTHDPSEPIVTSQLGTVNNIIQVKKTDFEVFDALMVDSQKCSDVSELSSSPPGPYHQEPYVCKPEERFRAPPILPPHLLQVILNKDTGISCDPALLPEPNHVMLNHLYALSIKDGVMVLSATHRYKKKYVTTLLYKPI
Chain of AURKB (human) (Q96GD4 whole entry, looked up): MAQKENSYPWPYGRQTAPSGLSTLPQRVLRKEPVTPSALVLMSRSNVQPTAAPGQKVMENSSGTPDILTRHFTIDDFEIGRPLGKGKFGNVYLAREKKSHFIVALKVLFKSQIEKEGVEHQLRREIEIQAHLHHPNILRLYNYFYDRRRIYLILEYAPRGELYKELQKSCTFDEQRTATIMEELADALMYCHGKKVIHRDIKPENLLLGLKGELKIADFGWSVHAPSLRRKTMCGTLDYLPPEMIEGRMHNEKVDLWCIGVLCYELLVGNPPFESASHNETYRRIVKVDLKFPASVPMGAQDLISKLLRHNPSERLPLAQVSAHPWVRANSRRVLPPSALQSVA
Chain of PDPK1 (human) (O15530 whole entry, looked up): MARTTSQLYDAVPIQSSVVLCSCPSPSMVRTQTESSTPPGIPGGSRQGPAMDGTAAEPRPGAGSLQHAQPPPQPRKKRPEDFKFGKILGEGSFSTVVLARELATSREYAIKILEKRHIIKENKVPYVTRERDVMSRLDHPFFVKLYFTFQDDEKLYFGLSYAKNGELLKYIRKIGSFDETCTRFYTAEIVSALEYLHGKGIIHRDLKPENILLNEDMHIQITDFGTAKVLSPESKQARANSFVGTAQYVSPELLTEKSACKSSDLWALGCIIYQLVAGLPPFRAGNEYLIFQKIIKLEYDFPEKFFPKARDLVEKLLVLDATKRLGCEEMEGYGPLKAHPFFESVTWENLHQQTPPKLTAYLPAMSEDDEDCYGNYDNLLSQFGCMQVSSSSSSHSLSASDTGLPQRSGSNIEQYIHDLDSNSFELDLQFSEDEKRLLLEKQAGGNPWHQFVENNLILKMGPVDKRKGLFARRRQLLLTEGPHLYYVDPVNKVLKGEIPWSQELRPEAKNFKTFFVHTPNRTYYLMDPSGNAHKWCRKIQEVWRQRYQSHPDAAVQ
Chain of BTK (human) (Q06187 whole entry, looked up): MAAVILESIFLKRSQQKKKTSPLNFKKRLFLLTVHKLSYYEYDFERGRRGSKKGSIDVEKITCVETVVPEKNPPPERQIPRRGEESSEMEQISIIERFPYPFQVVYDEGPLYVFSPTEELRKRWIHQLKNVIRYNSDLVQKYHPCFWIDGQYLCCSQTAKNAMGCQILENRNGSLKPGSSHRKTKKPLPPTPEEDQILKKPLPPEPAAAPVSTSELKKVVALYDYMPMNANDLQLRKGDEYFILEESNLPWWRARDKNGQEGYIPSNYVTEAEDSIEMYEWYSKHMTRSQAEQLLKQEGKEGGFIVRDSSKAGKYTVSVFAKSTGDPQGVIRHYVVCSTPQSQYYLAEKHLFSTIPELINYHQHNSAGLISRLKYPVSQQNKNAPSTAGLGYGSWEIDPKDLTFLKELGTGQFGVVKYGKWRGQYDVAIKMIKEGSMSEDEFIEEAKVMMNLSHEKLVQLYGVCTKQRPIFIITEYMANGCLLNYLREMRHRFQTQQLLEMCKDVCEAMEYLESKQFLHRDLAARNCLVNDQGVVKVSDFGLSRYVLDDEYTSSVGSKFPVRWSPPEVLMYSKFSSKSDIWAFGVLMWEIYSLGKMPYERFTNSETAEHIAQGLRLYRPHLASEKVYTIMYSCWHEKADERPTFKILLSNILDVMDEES
Chain of FLT1 (human) (P17948 whole entry, looked up): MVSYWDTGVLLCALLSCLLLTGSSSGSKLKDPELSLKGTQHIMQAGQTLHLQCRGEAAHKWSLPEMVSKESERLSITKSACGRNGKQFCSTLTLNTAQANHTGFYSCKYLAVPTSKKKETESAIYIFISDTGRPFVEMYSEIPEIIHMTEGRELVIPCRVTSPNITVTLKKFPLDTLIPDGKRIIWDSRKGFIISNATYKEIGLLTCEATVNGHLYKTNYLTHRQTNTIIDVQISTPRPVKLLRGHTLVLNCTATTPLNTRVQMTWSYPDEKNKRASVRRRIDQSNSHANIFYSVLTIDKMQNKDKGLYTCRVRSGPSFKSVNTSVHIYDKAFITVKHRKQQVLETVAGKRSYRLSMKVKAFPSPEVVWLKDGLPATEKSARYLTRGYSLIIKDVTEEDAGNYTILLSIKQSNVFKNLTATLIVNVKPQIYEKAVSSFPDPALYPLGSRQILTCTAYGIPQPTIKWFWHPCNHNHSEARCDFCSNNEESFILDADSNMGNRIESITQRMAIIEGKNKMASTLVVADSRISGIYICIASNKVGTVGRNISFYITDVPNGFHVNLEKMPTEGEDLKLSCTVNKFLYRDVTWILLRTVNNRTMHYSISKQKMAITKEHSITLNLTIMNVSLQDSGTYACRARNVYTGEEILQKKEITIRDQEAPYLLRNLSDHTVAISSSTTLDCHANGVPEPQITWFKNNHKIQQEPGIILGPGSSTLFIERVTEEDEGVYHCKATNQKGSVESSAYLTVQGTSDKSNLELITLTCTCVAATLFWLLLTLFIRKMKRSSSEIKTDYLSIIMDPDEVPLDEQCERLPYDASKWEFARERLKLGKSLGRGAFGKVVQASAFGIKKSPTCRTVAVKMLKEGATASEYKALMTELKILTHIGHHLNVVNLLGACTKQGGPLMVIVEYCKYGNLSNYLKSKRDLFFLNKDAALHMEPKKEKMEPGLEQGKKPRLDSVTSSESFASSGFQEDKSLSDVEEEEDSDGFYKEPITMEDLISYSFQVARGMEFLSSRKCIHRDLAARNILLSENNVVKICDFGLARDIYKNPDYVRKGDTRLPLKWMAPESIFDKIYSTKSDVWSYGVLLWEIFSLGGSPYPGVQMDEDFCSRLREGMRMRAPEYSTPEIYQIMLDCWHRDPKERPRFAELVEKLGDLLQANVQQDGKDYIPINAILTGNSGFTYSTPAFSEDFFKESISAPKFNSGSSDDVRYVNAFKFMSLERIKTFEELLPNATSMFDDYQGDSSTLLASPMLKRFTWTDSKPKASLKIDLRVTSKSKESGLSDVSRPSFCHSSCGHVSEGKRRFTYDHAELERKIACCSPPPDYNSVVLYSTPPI
Chain of TSSK1B (human) (Q9BXA7 whole entry, looked up): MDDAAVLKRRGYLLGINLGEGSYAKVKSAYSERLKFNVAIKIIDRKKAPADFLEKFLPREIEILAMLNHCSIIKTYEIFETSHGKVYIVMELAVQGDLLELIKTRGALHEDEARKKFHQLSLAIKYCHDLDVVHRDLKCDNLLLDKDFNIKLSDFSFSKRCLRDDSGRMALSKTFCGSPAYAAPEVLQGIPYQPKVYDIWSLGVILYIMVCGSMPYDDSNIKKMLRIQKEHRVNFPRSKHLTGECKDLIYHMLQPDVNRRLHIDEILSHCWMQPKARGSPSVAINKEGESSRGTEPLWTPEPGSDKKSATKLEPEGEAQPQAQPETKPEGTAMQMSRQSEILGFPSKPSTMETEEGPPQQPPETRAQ

`COC(=O)[C@]1(O)C[C@@H]2O[C@@]1(C)n1c3ccccc3c3c4c(c5c6ccccc6n2c5c31)C(=O)NC4` gave a residual activity (PAK6 (human); compound 1.0 µM) of 0%, a residual activity (PAK6 (human); compound 10.0 µM) of -1% and a residual activity (GCK (human)) of 0%. The residual activity (PRKD2 (human)) was 0%, the residual activity (NTRK2 (human); compound 1.0 µM) was 0% and the residual activity (NTRK2 (human); compound 10.0 µM) was 0%. It also gave a residual activity (HIPK3 (human)) of -4%, a residual activity (BTK (human); compound 1.0 µM) of -1% and a residual activity (BTK (human); compound 10.0 µM) of -1%. For the same molecule, the residual activity (CDK7 CCNH MNAT1 (human); compound 1.0 µM) was 55%, the residual activity (CDK7 CCNH MNAT1 (human); compound 10.0 µM) was 16% and the residual activity (TLK2 (human)) was 0%. For the same molecule, the residual activity (STK24 (human)) was 0%, the residual activity (MTOR FKBP1A (human); compound 1.0 µM) was 89% and the residual activity (MTOR FKBP1A (human); compound 10.0 µM) was 79%. The residual activity (FLT1 (human); compound 1.0 µM) was 0%, the residual activity (FLT1 (human); compound 10.0 µM) was 0% and the residual activity (CAMK1D (human)) was 0%. For the same molecule, the residual activity (FYN (human)) was 0%, the residual activity [1] was -1% and the residual activity (FLT3 (human)) was 0%. The residual activity (PTK2B (human)) was -1%, the residual activity (MARK2 (human)) was -2% and the residual activity (PDPK1 (human); compound 1.0 µM) was -1%. The residual activity (PDPK1 (human); compound 10.0 µM) was 0%, the residual activity (MAPK1 (human)) was -3% and the residual activity (RPS6KA4 KD1 KD2 (human); compound 1.0 µM) was -1%. For the same molecule, the residual activity (RPS6KA4 KD1 KD2 (human); compound 10.0 µM) was 0%, the residual activity [2] was 0% and the residual activity (FER (human)) was 0%. It also gave a residual activity (EPHA1 (human)) of 0%, a residual activity (MAPK3 (human)) of -1% and a residual activity (MAPK8 (human); compound 1.0 µM) of -12%. For the same molecule, the residual activity (MAPK8 (human); compound 10.0 µM) was -20%, the residual activity (IRAK1 (human)) was 0% and the residual activity (DAPK2 (human)) was -3%. The residual activity (CAMK2D (human)) was 0%, the residual activity (ULK3 (human)) was 0% and the residual activity (RPS6KA5 KD1 KD2 (human)) was 0%. The residual activity (FGR (human)) was -1%, the residual activity ([3]; compound 1.0 µM) was -5% and the residual activity ([3]; compound 10.0 µM) was 1%. The residual activity (TSSK1B (human); compound 1.0 µM) was -1%, the residual activity (TSSK1B (human); compound 10.0 µM) was 0% and the residual activity (AURKB (human); compound 1.0 µM) was 0%. The residual activity (AURKB (human); compound 10.0 µM) was 0%, the residual activity (RPS6KA6 KD1 KD2 (human)) was -2% and the residual activity (CHEK1 (human)) was -1%.
